Data from PubChem BioAssay (NCI).
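These data come from cells grown in 96-well plates and exposed to compound for 48 hours at five concentrations. The concentration for 50% growth inhibition is given as GI50. Definition used: TGI = concentration required for complete inhibition of growth.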

How the values were obtained:
Assay in all cases: growth of human tumour cells (NCI), 48 h
SW-620 colon = tested on: SW-620 colon
HCT-15 colon = tested on: HCT-15 colon
CCRF-CEM leukemia = tested on: CCRF-CEM leukemia
HOP-62 NSCLC = tested on: HOP-62 NSCLC
KM12 colon = tested on: KM12 colon
NCI-H522 lung = tested on: NCI-H522 lung
SK-MEL-2 melanoma = tested on: SK-MEL-2 melanoma
MALME-3M melanoma = tested on: MALME-3M melanoma
HT29 colon = tested on: HT29 colon
RXF 393 renal = tested on: RXF 393 renal

In the case of `C1=CC=C2NCCOCCNC3=CC=CC=CC3=NCCOCCN=C2C=C1`, the TGI (SW-620 colon) is reported as greater than 100 µM, the TGI (HCT-15 colon) is reported as greater than 100 µM and the TGI (CCRF-CEM leukemia) is reported as greater than 100 µM. The TGI (HOP-62 NSCLC) was greater than 100 µM, the TGI (KM12 colon) was greater than 100 µM and the TGI (NCI-H522 lung) was greater than 100 µM. The TGI (SK-MEL-2 melanoma) was greater than 100 µM, the TGI (MALME-3M melanoma) was 76 µM and the TGI (HT29 colon) was 62.6 µM.

`COc1ccc(Cl)cc1Nc1nc(C(F)(F)F)ccc1C(=O)N/N=C/c1cc(OC)c(OC)c(OC)c1` gave a GI50 (SW-620 colon) of 2.79 µM, a TGI (SW-620 colon) greater than 100 µM and a GI50 (HCT-15 colon) of 1.23 µM. It also gave a TGI (HCT-15 colon) of 11.9 µM, a GI50 (CCRF-CEM leukemia) of 1.27 µM and a TGI (CCRF-CEM leukemia) greater than 100 µM. For the same compound, the GI50 (HOP-62 NSCLC) was 5.17 µM, the TGI (HOP-62 NSCLC) was 20.5 µM and the GI50 (KM12 colon) was 3.55 µM. For the same compound, the TGI (KM12 colon) was 20.8 µM, the GI50 (NCI-H522 lung) was 2.29 µM and the TGI (NCI-H522 lung) was 5.83 µM. The GI50 (SK-MEL-2 melanoma) was 1.76 µM, the TGI (SK-MEL-2 melanoma) was 5.35 µM and the GI50 (MALME-3M melanoma) was 1.07 µM. For the same compound, the TGI (MALME-3M melanoma) was 4.05 µM, the GI50 (HT29 colon) was 3.73 µM and the TGI (HT29 colon) was 13.2 µM.

Work on `O=C(OC[C@H]1O[C@@H](OC(=O)c2cc(O)c(O)c(O)c2)[C@H](OC(=O)c2cc(O)c(O)c(O)c2)[C@@H](OC(=O)c2cc(O)c(O)c(O)c2)[C@@H]1OC(=O)c1cc(O)c(O)c(O)c1)c1cc(O)c(O)c(O)c1` yielded a TGI (SW-620 colon) greater than 100 µM, a TGI (HCT-15 colon) greater than 100 µM and a TGI (CCRF-CEM leukemia) greater than 100 µM. For the same compound, the TGI (HOP-62 NSCLC) was 14.4 µM, the TGI (RXF 393 renal) was 31.2 µM and the TGI (KM12 colon) was 6.65 µM. It also gave a TGI (NCI-H522 lung) of 14.2 µM, a TGI (SK-MEL-2 melanoma) of 26.4 µM and a TGI (HT29 colon) of 73.7 µM.

Work on `CN1C(=O)C(Cl)(C(Cl)(Cl)S(=O)(=O)O)C(=O)c2ccccc21` (stereo unspecified) yielded a TGI (SW-620 colon) greater than 100 µM, a TGI (CCRF-CEM leukemia) greater than 100 µM and a TGI (HOP-62 NSCLC) greater than 100 µM. For the same compound, the TGI (RXF 393 renal) was greater than 100 µM, the TGI (KM12 colon) was greater than 100 µM and the TGI (NCI-H522 lung) was greater than 100 µM. The TGI (MALME-3M melanoma) was 76.1 µM and the TGI (HT29 colon) was 73 µM.

Compound `O=C1NC2(CN3CCC2CC3)C(=O)N1CN(Cc1ccccc1)c1ccccc1` (stereo unspecified) has a TGI (SW-620 colon) greater than 100 µM, a TGI (HCT-15 colon) greater than 100 µM and a TGI (HOP-62 NSCLC) greater than 100 µM. It also gave a TGI (RXF 393 renal) greater than 100 µM, a TGI (KM12 colon) greater than 100 µM and a TGI (NCI-H522 lung) greater than 100 µM. The TGI (SK-MEL-2 melanoma) was greater than 100 µM and the TGI (HT29 colon) was greater than 100 µM.

`Cc1nn(-c2ccccc2)c(-c2ccccc2[N+](=O)[O-])c1CC#N` showed a TGI (HCT-15 colon) greater than 100 µM, a TGI (CCRF-CEM leukemia) greater than 100 µM and a TGI (HOP-62 NSCLC) greater than 100 µM. The TGI (RXF 393 renal) was greater than 100 µM, the TGI (KM12 colon) was greater than 100 µM and the TGI (NCI-H522 lung) was greater than 100 µM. For the same compound, the TGI (SK-MEL-2 melanoma) was greater than 100 µM and the TGI (MALME-3M melanoma) was greater than 100 µM.

Compound `CCOC(=O)c1cc(/C=C/C(C)=C/C(=O)OC)n(C)c1C` has a TGI (SW-620 colon) greater than 100 µM, a TGI (HCT-15 colon) greater than 100 µM and a TGI (CCRF-CEM leukemia) greater than 100 µM. It also gave a TGI (HOP-62 NSCLC) greater than 100 µM, a TGI (KM12 colon) greater than 100 µM and a TGI (NCI-H522 lung) greater than 100 µM. For the same compound, the TGI (MALME-3M melanoma) was greater than 100 µM and the TGI (HT29 colon) was greater than 100 µM.

Work on `CN=C1SC(=Nc2ccc(N(C)C)cc2)N1C` yielded a TGI (SW-620 colon) greater than 100 µM, a TGI (HCT-15 colon) greater than 100 µM and a TGI (CCRF-CEM leukemia) greater than 100 µM. It also gave a TGI (HOP-62 NSCLC) greater than 100 µM, a TGI (KM12 colon) greater than 100 µM and a TGI (NCI-H522 lung) of 59.3 µM. It also gave a TGI (SK-MEL-2 melanoma) of 76.6 µM, a TGI (MALME-3M melanoma) greater than 100 µM and a TGI (HT29 colon) greater than 100 µM.

`COc1ccc(CN2c3ccccc3CCc3ccccc32)cc1F` gave a GI50 (SW-620 colon) of 0.386 µM, a TGI (SW-620 colon) greater than 100 µM and a GI50 (HCT-15 colon) of 0.428 µM. It also gave a TGI (HCT-15 colon) greater than 100 µM, a GI50 (CCRF-CEM leukemia) of 0.515 µM and a TGI (CCRF-CEM leukemia) greater than 100 µM. For the same compound, the GI50 (HOP-62 NSCLC) was 0.529 µM, the TGI (HOP-62 NSCLC) was greater than 100 µM and the GI50 (KM12 colon) was 0.387 µM. It also gave a TGI (KM12 colon) greater than 100 µM, a GI50 (NCI-H522 lung) of 0.609 µM and a TGI (NCI-H522 lung) greater than 100 µM. It also gave a GI50 (HT29 colon) of 0.32 µM and a TGI (HT29 colon) of 1.9 µM.

`COC(=O)c1c(-c2ccccc2)sc(-c2cccc3ccccc23)c1C(=O)OC` was tested, and the TGI (SW-620 colon) was greater than 100 µM, the TGI (HCT-15 colon) was greater than 100 µM and the TGI (CCRF-CEM leukemia) was greater than 100 µM. It also gave a TGI (RXF 393 renal) greater than 100 µM, a TGI (KM12 colon) greater than 100 µM and a TGI (NCI-H522 lung) greater than 100 µM. For the same compound, the TGI (SK-MEL-2 melanoma) was greater than 100 µM, the TGI (MALME-3M melanoma) was greater than 100 µM and the TGI (HT29 colon) was greater than 100 µM.

With `O=C([CH-]C(=O)C(F)(F)F)c1ccccc1.O=C([CH-]C(=O)C(F)(F)F)c1ccccc1.O=C([CH-]C(=O)C(F)(F)F)c1ccccc1.O=C([CH-]C(=O)C(F)(F)F)c1ccccc1.[Eu+3].c1ccncc1` the GI50 (SW-620 colon) was 11.9 µM, the TGI (SW-620 colon) was greater than 100 µM and the GI50 (HCT-15 colon) was 4.98 µM. For the same compound, the TGI (HCT-15 colon) was greater than 100 µM, the GI50 (CCRF-CEM leukemia) was 2.64 µM and the TGI (CCRF-CEM leukemia) was 32.7 µM. It also gave a GI50 (HOP-62 NSCLC) of 8.37 µM, a TGI (HOP-62 NSCLC) of 64 µM and a GI50 (RXF 393 renal) of 2.25 µM. For the same compound, the TGI (RXF 393 renal) was 18.8 µM, the GI50 (KM12 colon) was 3.08 µM and the TGI (KM12 colon) was 8.11 µM. For the same compound, the GI50 (NCI-H522 lung) was 2.8 µM, the TGI (NCI-H522 lung) was 17.9 µM and the GI50 (HT29 colon) was 6.97 µM. For the same compound, the TGI (HT29 colon) was greater than 100 µM.
